The values that follow come from patent US20260265696A1, “HUMAN IPSC DERIVED AMELOBLASTS AND USES THEREOF” (UNIVERSITY OF WASHINGTON, priority 2021, published 2026).

The test system of this experiment is hiPSCs (WTC-11) differentiating to ameloblasts (iAM). Description: AMBN expression (QRT-PCR) in hiPSC-derived ameloblast (iAM) differentiation, day 10 to day 16, factors removed or added. The following applies: for expression of AMBN when the factor is removed: factor removed independently from differentiation day 10 to day 16, compared to when all factors are present. It counts as cell-based, human. Here is the method:
FIGS. 7A-7E: (FIG. 7A) Schematic of the 16-day differentiation protocol produced, which targets the identified signaling pathways utilizing growth factors and small molecules to transition through the ameloblast developmental trajectory. […] Each study was performed in triplicate, with error bars representing SEM. (FIG. 7C) The efficiency of each pathway activated in the differentiation from day 10 to day 16 were assessed by removing each agonist one at a time or adding FGFR2 mini binder to inhibit the FGFR2 pathway. AMBN expression was assessed in QRT-PCR, and each condition was performed in triplicate. Significance was determined by unpaired Student's t-test; ***p<0.001; ****p<0.0001; Graph error bars are the means±SEM.
To dissect which pathways were essential for the differentiation from day 10 to day 16, the process of elimination was used (FIG. 7C). […] It was hypothesized that the cells in culture secrete enough FGF ligands to saturate the receptors, and any exogenous ligands would have minimal effects. To test this hypothesis, a computationally designed protein was used, FGFR2 mini-binder (FGFR-mb), that specifically binds and inhibits the activity of the FGFR2 (Cao et al., 2022). […] This marks the importance of highly specific AI-designed mini-proteins in analyzing the requirement of signaling pathways in differentiation. It is plausible that temporal preciseness and high penetrance, combined with specificity of designed mini-binders to their targets may partially out-compete in the future genetic perturbations of signaling pathway in iPSC derived differentiation paradigms.
Briefly, hiPSCs (WTC-11 human induced pluripotent stem cells) (Coriell, #GM25256) were seeded on 12-well plates coated with growth factor-reduced Matrigel (Corning, #356231) and cultured in mTeSR1 stem cell medium (StemCell Technologies, #85850) until cells reach confluency with medium changes daily. On the first day of differentiation (deemed Day 0), stem cell media is replaced with ameloblast base media consisted of either EpiCult-C media (StemCell Technologies, #05630) or RPMI 1640 Medium (Thermo, #11875093) mixed with EpiLife (Thermo, #MEPI500CA) at 1:1 ratio, supplemented with 0.1× supplement S7 (Thermo, #S0175), 0.1 uM β-mercaptoethanol (BME) (Sigma, #M7522) and 400 um smoothened agonist (SAG) (Selleckchem, #S7779). At day 3 of differentiation 150 μM of bone morphogenic protein-4 (BMP4) (rndsystems, #314-BP-010) is continuously added daily till day 7. At day 8, the base media is supplemented with 1 uM of BMP-I inhibitor (LDN-193189) (Tocris, #6053), 5 uM of GSK3-Inhibitor (CHIR99021) (Selleckchem, #4423), 500 μM epidermal growth factor (EGF) (rndsystems, #236-EG) and 3.5 μM of Neurotrophin-4 (NT4) (rndsystems, #268-N4). The cultures were then harvested at day 10 at an oral epithelium stage, or extended to day 16 by adding 300 μM BMP4, and 800 nM transforming growth factor beta 1(TGFβ1) (rndsystems, #7754-BH) for the early ameloblast stage at day 16. For testing FGFR signaling requirement for the maturation process we added 50 nM purified FGFR-mb (see below) to the media at day 14 and harvested the samples at day 16 of the differentiation.
RNA was extracted using Trizol (Life Technologies) according to manufacturer's instructions. RNA samples were treated with Turbo DNase (Thermo Fisher Scientific) and quantified using Nanodrop ND-1000. Reverse transcription was performed using iScript cDNA Synthesis Kit (Bio-Rad). […]

`Cc1cnc(-c2cnc(NCCNc3ccc(C#N)cn3)nc2-c2ccc(Cl)cc2Cl)[nH]1` [GSKi, 6-[[2-[[4-(2,4-dichlorophenyl)-5-(5-methyl-1H-imidazol-2-yl)-2-pyrimidinyl]amino]ethyl]amino]-3-pyridinecarbonitrile, reference compound]: the “expression of AMBN when the factor is removed” value (shortened to “expression of AMBN”) was “completely abolished AMBN expression”.

For `CN[C@H]1CC[C@H](N(Cc2cccc(-c3ccncc3)c2)C(=O)c2sc3ccccc3c2Cl)CC1` [SAG, 3-chloro-N-[(1r,4r)-4-(methylamino)cyclohexyl]-N-[3-(pyridin-4-yl)benzyl]benzo[b]thiophene-2-carboxamide, reference compound], the “expression of AMBN” value was “significantly reduced to less than half”.

“EGF: epidermal growth factor (NSDSECPLSHDGYCLHDGVCMYIEALDKYACNCVVGYIGERCQYRDLKWWELR; Epidermal growth factor; UniProt P01133 971-1023, looked up)”: the “expression of AMBN” value is “significantly reduced to less than half”.

For “TGFβ1: transforming growth factor beta 1”, the “expression of AMBN” value is “significantly reduced to less than half”.

Take “bFGF: exogenous FGF ligand added to the differentiation”: the “AMBN expression on adding bFGF” value (bFGF added to differentiation day 10 to day 16) is on record as “no significant effect”.
